Experimental data: ChEMBL document CHEMBL1158657, “Improved antitumor activity by modification of nogalamycin” (1979)

Key:
Assay type in all cases: functional
[1] = test system: L1210; assay: Cytotoxicity against mouse L1210 cells; conditions: for IC50: Mus musculus
[2] = test system: P388; assay: Antitumor activity against mouse P388 cells xenografted in mouse assessed as increase in life span at 20 mg/kg/day, ip after 9 days; conditions: route intraperitoneal
[3] = test system: L1210; assay: Antitumor activity against mouse L1210 cells xenografted in mouse assessed as increase in life span at 20 mg/kg/day, ip after 9 days; conditions: route intraperitoneal
[4] = test system: L1210; assay: Inhibition of RNA synthesis in mouse L1210 cells at 10 nmole/ml
[5] = test system: P388; assay: Antitumor activity against mouse P388 cells xenografted in mouse assessed as increase in life span at 25 mg/kg/day, ip after 9 days; conditions: route intraperitoneal
[6] = test system: B16; assay: Antitumor activity against mouse B16 cells xenografted in mouse assessed as increase in life span at 50 mg/kg/day, ip after 9 days; conditions: route intraperitoneal
[7] = test system: L1210; assay: Antitumor activity against mouse L1210 cells xenografted in mouse assessed as increase in life span at 50 mg/kg/day, ip after 9 days; conditions: route intraperitoneal
[8] = test system: L1210; assay: Inhibition of DNA synthesis in mouse L1210 cells; conditions: read-out: ID50 (the source's name)
[9] = test system: L1210; assay: Inhibition of RNA synthesis in mouse L1210 cells; conditions: read-out: ID50 (the source's name)
[10] = test system: B16; assay: Antitumor activity against mouse B16 cells xenografted in mouse assessed as increase in life span at 12 mg/kg/day, ip after 9 days; conditions: route intraperitoneal
[11] = test system: P388; assay: Antitumor activity against mouse P388 cells xenografted in mouse assessed as increase in life span at 6.5 mg/kg/day, ip after 9 days; conditions: route intraperitoneal
[12] = test system: B16; assay: Antitumor activity against mouse B16 cells xenografted in mouse assessed as increase in life span at 16 mg/kg/day, ip after 9 days; conditions: route intraperitoneal
[13] = test system: P388; assay: Antitumor activity against mouse P388 cells xenografted in mouse assessed as increase in life span at 12.5 mg/kg/day, ip after 9 days; conditions: route intraperitoneal
[14] = test system: P388; assay: Antitumor activity against mouse P388 cells xenografted in mouse assessed as increase in life span at 5 mg/kg/day, ip after 9 days; conditions: route intraperitoneal
[15] = test system: P388; assay: Antitumor activity against mouse P388 cells xenografted in mouse assessed as increase in life span at 4 mg/kg/day, ip after 9 days; conditions: route intraperitoneal
[16] = test system: P388; assay: Antitumor activity against mouse P388 cells xenografted in mouse assessed as increase in life span at 100 mg/kg/day, ip after 9 days; conditions: route intraperitoneal
[17] = test system: P388; assay: Antitumor activity against mouse P388 cells xenografted in mouse assessed as increase in life span at 8 mg/kg/day, ip after 9 days; conditions: route intraperitoneal
[18] = test system: B16; assay: Antitumor activity against mouse B16 cells xenografted in mouse assessed as increase in life span at 2 to 5 mg/kg/day, ip after 9 days; conditions: route intraperitoneal
[19] = test system: L1210; assay: Antitumor activity against mouse L1210 cells xenografted in mouse assessed as increase in life span at 2.5 mg/kg/day, ip after 9 days; conditions: route intraperitoneal

Question: How did the ID95 [1] turn out when CO[C@H]1[C@H](O[C@H]2C[C@](C)(O)[C@H](C(=O)O)c3cc4c(c(O)c32)C(=O)c2c(O)cc3c(c2C4=O)O[C@@H]2O[C@@]3(C)[C@H](O)[C@@H](N(C)C)[C@@H]2O)O[C@@H](C)[C@H](OC)[C@@]1(C)OC [NOGALAMYCINIC ACID] was run?
Answer: 1.94 µg/mL

Question: What about the IC50 ([1]; L1210, read-out: ID50) of the same compound?
Answer: 1 µg/mL

Question: What about the Activity [2] of the same compound?
Answer: 56%

Question: And the Activity [3]?
Answer: 18%

Question: What about the “inhibition (INH)” value [4] of the same compound?
Answer: 86.7%

Question: How did the Activity [5] turn out when CCN[C@H]1C[C@](C)(O)[C@H](C(=O)OC)c2cc3c(c(O)c21)C(=O)c1c(O)cc2c(c1C3=O)O[C@@H]1O[C@@]2(C)[C@H](O)[C@@H](N(C)C)[C@@H]1O was run?
Answer: 55%

Question: What does the source list for COC(=O)[C@@H]1c2cc3c(c(O)c2[C@@H](OC)C[C@]1(C)O)C(=O)c1c(O)cc2c(c1C3=O)O[C@@H]1O[C@@]2(C)[C@H](O)[C@@H](N(C)C)[C@@H]1O?
Answer: Activity [6]: 84%; Activity [5]: 60%; IC50 ([1]; L1210, read-out: ID50): 0.27 µg/mL; Activity [7]: 12%; IC50 [8]: 3.8 µM; IC50 [9]: 0.5 µM

Question: For CCO[C@H]1C[C@@](C)(O)Cc2cc3c(c(O)c21)C(=O)c1c(O)cc2c(c1C3=O)O[C@@H]1O[C@@]2(C)[C@H](O)[C@@H](N(C)C)[C@@H]1O, which Activity [10] is on record?
Answer: 25%

Question: What about the IC50 ([1]; L1210, read-out: ID50) of the same compound?
Answer: 0.16 µg/mL

Question: And the Activity [11]?
Answer: 63%

Question: What about the IC50 [8] of the same compound?
Answer: 10.6 µM

Question: What about the IC50 [9] of the same compound?
Answer: 5.2 µM

Question: For CCN(CC)[C@H]1C[C@](C)(O)[C@H](C(=O)OC)c2cc3c(c(O)c21)C(=O)c1c(O)cc2c(c1C3=O)O[C@@H]1O[C@@]2(C)[C@H](O)[C@@H](N(C)C)[C@@H]1O, which Activity [5] is on record?
Answer: 38%

Question: For CO[C@H]1C[C@](C)(O)Cc2cc3c(c(O)c21)C(=O)c1c(O)cc2c(c1C3=O)O[C@@H]1O[C@@]2(C)[C@H](O)[C@@H](N(C)C)[C@@H]1O, which Activity [12] is on record?
Answer: 105%

Question: And the IC50 ([1]; L1210, read-out: ID50)?
Answer: 0.41 µg/mL

Question: What about the Activity [13] of the same compound?
Answer: 76%

Question: What about the IC50 [8] of the same compound?
Answer: 11.6 µM

Question: And the IC50 [9]?
Answer: 8.3 µM

Question: What about the “inhibition (INH)” value [4] of the same compound?
Answer: 91.2%

Question: For COC(=O)[C@@H]1c2cc3c(c(O)c2[C@@H](N=[N+]=[N-])C[C@]1(C)O)C(=O)c1c(O)cc2c(c1C3=O)O[C@@H]1O[C@@]2(C)[C@H](O)[C@@H](N(C)C)[C@@H]1O, which Activity [14] is on record?
Answer: 33%

Question: CCO[C@H]1C[C@](C)(O)[C@H](C(=O)OC)c2cc3c(c(O)c21)C(=O)c1c(O)cc2c(c1C3=O)O[C@@H]1O[C@@]2(C)[C@H](O)[C@@H](N(C)C)[C@@H]1O was tested. Which IC50 ([1]; L1210, read-out: ID50) did it give?
Answer: 0.16 µg/mL

Question: With CC(C)O[C@H]1C[C@@](C)(O)Cc2cc3c(c(O)c21)C(=O)c1c(O)cc2c(c1C3=O)O[C@@H]1O[C@@]2(C)[C@H](O)[C@@H](N(C)C)[C@@H]1O as the compound, how does the Activity [15] read?
Answer: 20%

Question: What does the source list for CN(C)[C@H]1[C@H](O)[C@@H]2Oc3c(cc(O)c4c3C(=O)c3cc5c(c(O)c3C4=O)CC[C@](C)(O)C5)[C@@](C)(O2)[C@@H]1O?
Answer: ID95 [1]: 1.76 µM; IC50 ([1]; L1210, read-out: ID50 (the source's name)): 0.94 µM; Activity [16]: 21%

Question: For COC(=O)[C@@H]1c2cc3c(c(O)c2[C@@H](SC)C[C@]1(C)O)C(=O)c1c(O)cc2c(c1C3=O)O[C@@H]1O[C@@]2(C)[C@H](O)[C@@H](N(C)C)[C@@H]1O, which Activity [17] is on record?
Answer: 37%

Question: Which Activity [18] does the source give for CO[C@H]1[C@H](O[C@H]2C[C@](C)(O)Cc3cc4c(c(O)c32)C(=O)c2c(O)cc3c(c2C4=O)O[C@@H]2O[C@@]3(C)[C@H](O)[C@@H](N(C)C)[C@@H]2O)O[C@@H](C)[C@H](OC)[C@@]1(C)OC [DISNOGAMYCIN] here?
Answer: 61%

Question: And the Activity [14]?
Answer: 93%

Question: What about the ID95 [1] of the same compound?
Answer: 0.27 µg/mL

Question: And the IC50 ([1]; L1210, read-out: ID50)?
Answer: 0.18 µg/mL

Question: What about the Activity [19] of the same compound?
Answer: 27%

Question: And the IC50 [8]?
Answer: 3 µM

Question: And the IC50 [9]?
Answer: 0.5 µM

Question: For CCCO[C@H]1C[C@](C)(O)[C@H](C(=O)OC)c2cc3c(c(O)c21)C(=O)c1c(O)cc2c(c1C3=O)O[C@@H]1O[C@@]2(C)[C@H](O)[C@@H](N(C)C)[C@@H]1O, which IC50 ([1]; L1210, read-out: ID50) is on record?
Answer: 0.16 µg/mL
